Common to all, as to assay type: tissue-based
For experiment [1], the target named is T1, Mitogen-activated protein kinase 14 (Homo sapiens, UniProt Q16539). Put plainly: Inhibition of p38 alpha MAPK in human whole blood assessed as suppression of LPS-induced TNF-alpha release by immunosorbent non-radioactive enzyme assay.
Experiment [2] has as its target T1, Mitogen-activated protein kinase 14. Description: Inhibition of p38 alpha MAPK in human whole blood assessed as suppression of LPS-induced TNF-alpha release by immunosorbent non-radioactive enzyme assay relative to SB203580.
The target is the same in experiment [3]. Put plainly: Inhibition of p38 alpha MAPK in human whole blood assessed as phosphorylation of ATF-2 by immunosorbent non-radioactive enzyme assay relative to SB203580.
For experiment [4] the target is unchanged. Put plainly: Inhibition of p38 alpha MAPK in human whole blood assessed as phosphorylation of ATF-2 by immunosorbent non-radioactive enzyme assay.

T1 sequence (Q16539 whole entry): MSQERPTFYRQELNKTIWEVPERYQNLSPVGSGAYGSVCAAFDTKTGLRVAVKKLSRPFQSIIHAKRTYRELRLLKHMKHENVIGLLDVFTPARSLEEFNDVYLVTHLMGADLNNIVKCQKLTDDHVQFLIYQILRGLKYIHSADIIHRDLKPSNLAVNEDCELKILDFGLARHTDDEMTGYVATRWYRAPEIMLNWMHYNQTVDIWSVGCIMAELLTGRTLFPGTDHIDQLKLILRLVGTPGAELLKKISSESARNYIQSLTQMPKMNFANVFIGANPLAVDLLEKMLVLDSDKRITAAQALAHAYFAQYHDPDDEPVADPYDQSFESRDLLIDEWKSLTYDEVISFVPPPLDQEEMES

Broadly, the IC50 is the concentration needed to halve the response being measured. `CC(C)[S+]([O-])c1nc(-c2ccc(F)cc2)c(-c2ccnc(NC3CCCCC3)c2)[nH]1` (racemic): the half-inhibitory concentration (IC50) in experiment [1] was 1080 nM; in experiment [4], 18 nM. For the same compound, the figures for the Ratio IC50 in experiment [2] and in experiment [3] were 1.72 and 2.17, respectively.

On to `C[S+]([O-])c1nc(-c2ccc(F)cc2)c(-c2ccnc(NC(=O)Cc3ccc(F)cc3)c2)[nH]1` (racemic), for which the IC50 in experiment [1] was 5550 nM; in experiment [4], 69 nM. Also, the Ratio IC50 was 0.31 in experiment [2] and 1.16 in experiment [3].

Consider `CC(C)Nc1cc(-c2[nH]c([S+](C)[O-])nc2-c2ccc(F)cc2)ccn1` (racemic), for which the 50% inhibitory concentration (IC50) in experiment [1] was 470 nM; in experiment [4] it was 2 nM. The Ratio IC50 worked out at 2.62 in experiment [2] and 7.5 in experiment [3].

Take `C[S+]([O-])c1nc(-c2ccc(F)cc2)c(-c2ccnc(NC3CCCCC3)c2)[nH]1` (racemic): the values for the IC50 in experiment [1] and in experiment [4] were 620 nM and 34 nM, respectively. The Ratio IC50 is 1.98 in experiment [2] and 1.68 in experiment [3].

Consider `CC(C)[C@@H](C)Nc1cc(-c2[nH]c([S@@+](C)[O-])nc2-c2ccc(F)cc2)ccn1`, for which the values for the half-inhibitory concentration (IC50) in experiment [1] and in experiment [4] were 900 nM and 31 nM, respectively. For the same compound, the values for the Ratio IC50 in experiment [2] and in experiment [3] were 1.72 and 2.32, respectively.

Turning to `CC(C)Nc1cc(-c2[nH]c([S+]([O-])C(C)C)nc2-c2ccc(F)cc2)ccn1` (racemic), the concentration for half-maximal inhibition (IC50) stood at 250 nM in experiment [1] and 3 nM in experiment [4]. The values for the Ratio IC50 in experiment [2] and in experiment [3] were 4.92 and 5, respectively.

As for `C[S+]([O-])c1nc(-c2ccc(F)cc2)c(-c2ccnc(NC3CCOCC3)c2)[nH]1` (racemic), the IC50 in experiment [1] came to 340 nM; in experiment [4], 12 nM. The Ratio IC50 in experiment [2] stood at 3.62; in experiment [3], 4.67.

Consider `CC(C)Nc1cc(-c2[nH]c([S@+](C)[O-])nc2-c2ccc(F)cc2)ccn1`, for which the 50% inhibitory concentration (IC50) in experiment [1] worked out at 840 nM; in experiment [4] it was 24 nM. The Ratio IC50 in experiment [2] amounted to 2.29; in experiment [3] it was 2.54.

Source of the values: ChEMBL document CHEMBL1773061, “Chiral sulfoxides as metabolites of 2-thioimidazole-based p38α mitogen-activated protein kinase inhibitors: enantioselective synthesis and biological evaluation” (J Med Chem, 2011).
